# Laboratory results published in ChEMBL document CHEMBL1126949 (J Med Chem, 1993).
# Target: D(3) dopamine receptor (Rattus norvegicus, UniProt P19020)
# Experiment: biochemical
# Sequence of D(3) dopamine receptor (P19020 whole entry): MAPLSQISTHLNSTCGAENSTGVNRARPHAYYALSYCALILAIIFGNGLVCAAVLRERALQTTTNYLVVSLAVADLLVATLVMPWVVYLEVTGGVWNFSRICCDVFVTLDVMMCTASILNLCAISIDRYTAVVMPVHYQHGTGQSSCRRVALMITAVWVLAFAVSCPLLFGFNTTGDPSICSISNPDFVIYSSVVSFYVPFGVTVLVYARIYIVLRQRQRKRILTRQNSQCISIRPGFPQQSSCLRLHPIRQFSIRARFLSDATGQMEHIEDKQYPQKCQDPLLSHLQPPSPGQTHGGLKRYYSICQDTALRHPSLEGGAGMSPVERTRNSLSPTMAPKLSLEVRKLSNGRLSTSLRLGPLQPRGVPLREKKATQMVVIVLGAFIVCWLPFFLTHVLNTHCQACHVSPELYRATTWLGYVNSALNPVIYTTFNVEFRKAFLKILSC
compound,measurement,value
CCCN(CCC)C1CCc2cccc(O)c2C1 (stereo unspecified) [8-OH-DPAT],Ki,248 nM
